We go through 11 molecules from BindingDB's records for PubMed 20126400 (University of Oklahoma, 2010).

Broadly, the Ki is a measure of affinity in units of concentration, obtained from inhibition or displacement.

Holding throughout (assay): Ray2010 Assay 74
One assay addresses Cannabinoid receptor 1 (Homo sapiens, UniProt P21554). The text has this:
(§1) Table S2 shows raw Ki data for the current study combined with data collected from the literature for the ten additional compounds.

In a further assay the target is Histamine H3 receptor (Homo sapiens, UniProt Q9Y5N1).
Sequence of Histamine H3 receptor (Q9Y5N1 whole entry): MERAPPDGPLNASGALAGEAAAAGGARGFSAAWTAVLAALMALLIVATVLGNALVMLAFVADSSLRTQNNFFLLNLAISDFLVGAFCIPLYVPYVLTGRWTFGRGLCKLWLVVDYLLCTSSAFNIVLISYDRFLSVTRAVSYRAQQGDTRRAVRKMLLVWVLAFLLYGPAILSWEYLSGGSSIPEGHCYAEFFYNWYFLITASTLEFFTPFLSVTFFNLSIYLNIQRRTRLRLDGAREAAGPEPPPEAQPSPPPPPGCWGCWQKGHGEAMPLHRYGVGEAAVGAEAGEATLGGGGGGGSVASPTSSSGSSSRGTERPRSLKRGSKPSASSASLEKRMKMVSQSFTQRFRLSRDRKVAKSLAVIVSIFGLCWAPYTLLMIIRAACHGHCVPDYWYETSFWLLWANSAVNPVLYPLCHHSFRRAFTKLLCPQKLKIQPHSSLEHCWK
Excerpt: as §1

Assay [1] addresses Muscarinic acetylcholine receptor M3 (Homo sapiens, UniProt P20309).
Excerpt: as §1

Assay [2] addresses Sigma non-opioid intracellular receptor 1 (Homo sapiens, UniProt Q99720).
Excerpt: as §1

Another assay deals with Nischarin (Homo sapiens, UniProt Q9Y2I1).
Excerpt: as §1

Another assay concerns the target T1, Vasopressin V1b receptor (Homo sapiens, UniProt P47901).
T1 sequence (P47901 whole entry): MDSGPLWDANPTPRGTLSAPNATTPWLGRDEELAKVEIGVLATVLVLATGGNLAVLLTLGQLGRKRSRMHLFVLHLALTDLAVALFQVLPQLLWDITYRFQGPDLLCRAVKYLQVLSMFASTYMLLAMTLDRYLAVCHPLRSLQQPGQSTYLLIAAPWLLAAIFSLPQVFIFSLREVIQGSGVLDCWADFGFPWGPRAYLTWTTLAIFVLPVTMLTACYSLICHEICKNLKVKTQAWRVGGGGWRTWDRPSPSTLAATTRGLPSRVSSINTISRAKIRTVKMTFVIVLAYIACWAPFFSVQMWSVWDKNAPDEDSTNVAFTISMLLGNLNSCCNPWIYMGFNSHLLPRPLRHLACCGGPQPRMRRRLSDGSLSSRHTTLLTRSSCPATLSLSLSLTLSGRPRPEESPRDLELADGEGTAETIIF
Excerpt: as §1

In assay [3] the target is T2, Prostaglandin E2 receptor EP3 subtype (Homo sapiens, UniProt P43115).
T2 sequence (P43115 whole entry): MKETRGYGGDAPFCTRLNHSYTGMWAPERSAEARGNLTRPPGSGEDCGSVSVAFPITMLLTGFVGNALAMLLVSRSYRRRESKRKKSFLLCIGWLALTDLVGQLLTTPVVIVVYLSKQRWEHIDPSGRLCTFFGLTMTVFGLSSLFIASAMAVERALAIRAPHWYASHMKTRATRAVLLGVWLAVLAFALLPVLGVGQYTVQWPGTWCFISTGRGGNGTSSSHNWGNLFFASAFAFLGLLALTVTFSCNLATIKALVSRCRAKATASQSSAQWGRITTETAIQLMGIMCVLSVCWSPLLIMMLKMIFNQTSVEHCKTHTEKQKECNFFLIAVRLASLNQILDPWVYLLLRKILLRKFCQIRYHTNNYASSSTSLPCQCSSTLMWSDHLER
Excerpt: as §1

In assay [4] the target is T3, Alpha-2C adrenergic receptor (Homo sapiens, UniProt P18825).
T3 sequence (P18825 whole entry): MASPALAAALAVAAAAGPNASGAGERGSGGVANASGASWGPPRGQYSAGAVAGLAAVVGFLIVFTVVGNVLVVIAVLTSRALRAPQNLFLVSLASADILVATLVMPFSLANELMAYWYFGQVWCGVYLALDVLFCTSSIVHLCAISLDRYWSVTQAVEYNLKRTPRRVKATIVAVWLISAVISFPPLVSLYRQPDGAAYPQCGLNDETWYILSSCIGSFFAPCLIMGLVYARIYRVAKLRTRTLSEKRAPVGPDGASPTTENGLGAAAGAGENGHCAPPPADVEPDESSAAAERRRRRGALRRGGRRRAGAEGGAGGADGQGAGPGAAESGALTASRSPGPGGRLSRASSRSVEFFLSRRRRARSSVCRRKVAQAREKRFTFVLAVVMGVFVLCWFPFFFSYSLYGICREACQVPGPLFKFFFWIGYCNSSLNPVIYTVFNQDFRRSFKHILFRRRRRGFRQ
Excerpt: as §1

In assay [5] the target is Sigma intracellular receptor 2 (Homo sapiens, UniProt Q5BJF2).
Sequence of Sigma intracellular receptor 2 (Q5BJF2 whole entry): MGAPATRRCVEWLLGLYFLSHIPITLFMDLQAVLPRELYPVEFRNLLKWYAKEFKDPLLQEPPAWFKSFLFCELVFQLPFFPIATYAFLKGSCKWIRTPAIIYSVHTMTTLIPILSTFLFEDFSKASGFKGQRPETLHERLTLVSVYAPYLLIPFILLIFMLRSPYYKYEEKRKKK
Excerpt: as §1

For assay [6], the target named is T4, Alpha-2A adrenergic receptor (Homo sapiens, UniProt P08913).
T4 sequence (P08913 whole entry): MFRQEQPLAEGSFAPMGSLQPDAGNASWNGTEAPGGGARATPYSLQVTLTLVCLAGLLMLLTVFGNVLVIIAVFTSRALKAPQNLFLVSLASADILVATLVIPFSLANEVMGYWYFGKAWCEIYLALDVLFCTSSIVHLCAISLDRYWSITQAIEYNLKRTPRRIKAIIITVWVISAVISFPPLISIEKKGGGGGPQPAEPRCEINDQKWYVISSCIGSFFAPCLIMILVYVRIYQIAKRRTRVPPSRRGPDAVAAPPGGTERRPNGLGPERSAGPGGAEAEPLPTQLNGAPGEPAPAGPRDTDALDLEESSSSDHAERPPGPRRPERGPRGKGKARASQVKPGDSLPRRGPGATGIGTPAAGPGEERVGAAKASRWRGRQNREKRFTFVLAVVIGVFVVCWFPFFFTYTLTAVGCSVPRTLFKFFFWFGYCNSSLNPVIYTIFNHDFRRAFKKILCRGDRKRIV
Excerpt: as §1

The next assay deals with Cannabinoid receptor 2 (Homo sapiens, UniProt P34972).
Sequence of Cannabinoid receptor 2 (P34972 whole entry): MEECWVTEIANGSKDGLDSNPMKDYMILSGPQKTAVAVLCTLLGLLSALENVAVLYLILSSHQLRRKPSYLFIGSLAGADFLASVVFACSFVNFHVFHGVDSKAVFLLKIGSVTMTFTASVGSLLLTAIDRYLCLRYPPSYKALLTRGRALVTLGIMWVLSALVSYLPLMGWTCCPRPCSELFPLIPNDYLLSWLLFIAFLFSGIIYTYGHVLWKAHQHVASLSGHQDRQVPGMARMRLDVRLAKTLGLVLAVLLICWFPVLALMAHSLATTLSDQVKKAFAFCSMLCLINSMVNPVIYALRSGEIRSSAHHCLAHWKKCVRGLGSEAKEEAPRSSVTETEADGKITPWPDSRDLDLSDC
Excerpt: as §1

The target of assay [7] is 5-hydroxytryptamine receptor 7 (Homo sapiens, UniProt P34969).
Sequence of 5-hydroxytryptamine receptor 7 (P34969 whole entry): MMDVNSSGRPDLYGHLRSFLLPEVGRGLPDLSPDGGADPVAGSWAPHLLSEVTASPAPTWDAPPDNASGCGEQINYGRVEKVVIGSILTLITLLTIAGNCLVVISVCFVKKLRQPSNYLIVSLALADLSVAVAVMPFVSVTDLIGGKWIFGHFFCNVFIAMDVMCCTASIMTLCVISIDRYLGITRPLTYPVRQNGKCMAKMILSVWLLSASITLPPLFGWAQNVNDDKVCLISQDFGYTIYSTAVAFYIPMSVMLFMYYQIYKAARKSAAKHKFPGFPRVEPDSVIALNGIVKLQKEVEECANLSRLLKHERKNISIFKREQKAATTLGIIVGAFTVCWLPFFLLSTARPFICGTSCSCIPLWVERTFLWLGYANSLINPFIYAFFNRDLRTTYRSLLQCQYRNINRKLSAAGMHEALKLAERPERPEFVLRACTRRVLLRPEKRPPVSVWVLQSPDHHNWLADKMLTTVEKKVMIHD
Excerpt: as §1

For assay [8], the target named is Voltage-dependent calcium channel subunit alpha-2/delta-1 (Homo sapiens, UniProt P54289).
Sequence of Voltage-dependent calcium channel subunit alpha-2/delta-1 (P54289 25-956 limits assumed): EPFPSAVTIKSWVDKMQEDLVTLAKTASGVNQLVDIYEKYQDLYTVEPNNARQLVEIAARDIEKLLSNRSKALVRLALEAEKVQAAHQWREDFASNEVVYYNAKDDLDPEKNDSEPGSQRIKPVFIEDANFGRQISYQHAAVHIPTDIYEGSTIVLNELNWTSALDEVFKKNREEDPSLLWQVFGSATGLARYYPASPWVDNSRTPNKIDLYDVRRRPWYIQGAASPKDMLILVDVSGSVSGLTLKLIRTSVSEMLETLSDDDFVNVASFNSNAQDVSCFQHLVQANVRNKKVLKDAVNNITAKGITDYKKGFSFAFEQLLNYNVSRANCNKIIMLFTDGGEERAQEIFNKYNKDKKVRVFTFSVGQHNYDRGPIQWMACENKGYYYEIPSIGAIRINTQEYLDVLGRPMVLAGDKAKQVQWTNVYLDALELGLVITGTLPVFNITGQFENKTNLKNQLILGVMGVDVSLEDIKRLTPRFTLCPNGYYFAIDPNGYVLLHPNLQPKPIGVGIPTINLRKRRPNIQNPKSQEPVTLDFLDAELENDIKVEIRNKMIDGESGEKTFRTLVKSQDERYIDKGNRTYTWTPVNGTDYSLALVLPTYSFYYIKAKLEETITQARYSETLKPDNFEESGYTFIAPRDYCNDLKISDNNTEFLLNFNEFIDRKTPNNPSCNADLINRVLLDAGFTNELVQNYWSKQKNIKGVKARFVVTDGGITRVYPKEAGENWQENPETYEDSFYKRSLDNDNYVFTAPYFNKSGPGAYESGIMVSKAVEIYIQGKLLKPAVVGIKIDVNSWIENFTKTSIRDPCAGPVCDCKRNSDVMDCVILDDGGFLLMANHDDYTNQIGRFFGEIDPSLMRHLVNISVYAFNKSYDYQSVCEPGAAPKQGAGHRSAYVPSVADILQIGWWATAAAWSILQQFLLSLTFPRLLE
Sequence of Voltage-dependent calcium channel subunit alpha-2/delta-1 (P54289 957-1103 limits assumed): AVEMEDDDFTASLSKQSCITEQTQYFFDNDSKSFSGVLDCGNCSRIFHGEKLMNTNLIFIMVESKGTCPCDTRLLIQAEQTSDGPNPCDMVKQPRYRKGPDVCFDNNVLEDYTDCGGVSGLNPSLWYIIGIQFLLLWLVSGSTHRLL
Excerpt: as §1

The target in a further assay is Vasopressin V1a receptor (Homo sapiens, UniProt P37288).
Sequence of Vasopressin V1a receptor (P37288 whole entry): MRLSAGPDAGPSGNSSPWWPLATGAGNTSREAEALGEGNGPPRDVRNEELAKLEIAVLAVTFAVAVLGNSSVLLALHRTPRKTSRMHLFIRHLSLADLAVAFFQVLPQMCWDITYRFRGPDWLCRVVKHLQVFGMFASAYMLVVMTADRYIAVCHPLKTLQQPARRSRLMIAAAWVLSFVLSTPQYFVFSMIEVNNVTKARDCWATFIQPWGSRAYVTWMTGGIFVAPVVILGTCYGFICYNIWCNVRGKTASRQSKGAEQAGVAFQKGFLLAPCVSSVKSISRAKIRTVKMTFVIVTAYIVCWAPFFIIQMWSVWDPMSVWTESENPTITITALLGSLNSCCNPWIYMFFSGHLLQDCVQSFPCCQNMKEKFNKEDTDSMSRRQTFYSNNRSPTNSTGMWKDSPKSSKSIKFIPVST
Excerpt: as §1

The target in assay [9] is Beta-2 adrenergic receptor (Homo sapiens, UniProt P07550).
Sequence of Beta-2 adrenergic receptor (P07550 whole entry): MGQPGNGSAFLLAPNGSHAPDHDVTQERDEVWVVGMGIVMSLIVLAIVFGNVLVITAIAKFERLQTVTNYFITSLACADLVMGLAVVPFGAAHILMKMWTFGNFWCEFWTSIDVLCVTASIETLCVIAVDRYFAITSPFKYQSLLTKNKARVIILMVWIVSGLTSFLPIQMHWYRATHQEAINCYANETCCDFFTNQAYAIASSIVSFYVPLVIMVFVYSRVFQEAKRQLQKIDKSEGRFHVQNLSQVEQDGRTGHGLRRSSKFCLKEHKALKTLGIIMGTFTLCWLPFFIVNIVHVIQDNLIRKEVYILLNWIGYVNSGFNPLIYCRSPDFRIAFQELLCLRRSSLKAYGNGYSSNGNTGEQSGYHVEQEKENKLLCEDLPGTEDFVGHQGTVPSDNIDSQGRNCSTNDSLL
Excerpt: as §1

Structures are written as SMILES.

Sequence of Muscarinic acetylcholine receptor M3 (P20309 whole entry): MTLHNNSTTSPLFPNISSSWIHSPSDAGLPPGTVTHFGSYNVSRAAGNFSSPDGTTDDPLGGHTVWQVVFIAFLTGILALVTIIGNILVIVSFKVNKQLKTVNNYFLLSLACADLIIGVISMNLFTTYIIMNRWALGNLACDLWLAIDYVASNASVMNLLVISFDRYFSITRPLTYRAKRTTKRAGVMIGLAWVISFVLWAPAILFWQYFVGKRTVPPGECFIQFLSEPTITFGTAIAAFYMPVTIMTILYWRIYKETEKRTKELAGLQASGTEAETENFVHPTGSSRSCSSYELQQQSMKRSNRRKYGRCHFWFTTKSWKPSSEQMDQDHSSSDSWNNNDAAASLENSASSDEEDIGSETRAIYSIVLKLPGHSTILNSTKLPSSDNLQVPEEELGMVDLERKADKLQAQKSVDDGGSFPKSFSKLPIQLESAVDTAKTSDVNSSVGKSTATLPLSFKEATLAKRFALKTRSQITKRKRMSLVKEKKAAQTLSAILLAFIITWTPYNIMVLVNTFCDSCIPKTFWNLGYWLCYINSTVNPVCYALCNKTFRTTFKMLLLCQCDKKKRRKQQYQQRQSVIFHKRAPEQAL
Sequence of Cannabinoid receptor 1 (P21554 whole entry): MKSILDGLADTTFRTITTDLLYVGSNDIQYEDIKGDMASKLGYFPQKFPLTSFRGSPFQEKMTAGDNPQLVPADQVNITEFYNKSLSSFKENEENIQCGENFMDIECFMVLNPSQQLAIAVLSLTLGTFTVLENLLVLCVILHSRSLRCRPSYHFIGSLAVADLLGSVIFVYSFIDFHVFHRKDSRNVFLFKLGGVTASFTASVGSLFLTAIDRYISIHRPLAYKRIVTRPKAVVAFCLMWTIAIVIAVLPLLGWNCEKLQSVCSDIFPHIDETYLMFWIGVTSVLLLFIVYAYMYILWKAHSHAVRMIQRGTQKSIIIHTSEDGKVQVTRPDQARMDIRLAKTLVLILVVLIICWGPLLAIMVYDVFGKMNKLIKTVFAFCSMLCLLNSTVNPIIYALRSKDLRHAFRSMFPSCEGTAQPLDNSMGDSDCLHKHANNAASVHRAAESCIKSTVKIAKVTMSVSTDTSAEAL
Sequence of Sigma non-opioid intracellular receptor 1 (Q99720 whole entry): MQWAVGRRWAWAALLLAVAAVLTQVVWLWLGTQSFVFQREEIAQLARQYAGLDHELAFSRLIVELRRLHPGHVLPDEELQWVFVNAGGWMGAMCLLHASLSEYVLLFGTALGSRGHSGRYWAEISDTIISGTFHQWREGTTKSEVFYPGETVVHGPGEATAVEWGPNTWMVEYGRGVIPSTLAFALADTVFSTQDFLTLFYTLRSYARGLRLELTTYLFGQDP

As to `CCSc1cc(OC)c(CC(C)N)cc1OC` (stereo not given) [2-(4-Ethylsulfanyl-2,5-dimethoxy-phenyl)-1-methyl-ethylamine], the Ki is more than 10 µM on Cannabinoid receptor 1; more than 10 µM at Histamine H3 receptor; 1.91 µM in assay [1]; 0.239 µM in assay [2]; 0.32 µM on Nischarin; more than 10 µM at Vasopressin V1b receptor. Moreover, the Ki was more than 10 µM in assay [3]; 1.39 µM in [4]; more than 10 µM in assay [5]; 5.8 µM in assay [6]; more than 10 µM at Cannabinoid receptor 2; 1.32 µM in assay [7]. Also, the Ki (in assay [8]; at Vasopressin V1a receptor) was more than 10 µM in each case.
Regarding `COc1cc(CCN)cc(OC)c1OC` [3,4,5-trimethoxyphenylethylamine], the Ki is more than 10 µM at Cannabinoid receptor 1; more than 10 µM at Histamine H3 receptor; more than 10 µM in assay [1]; more than 10 µM in assay [2]; 2.68 µM on Nischarin; more than 10 µM on Vasopressin V1b receptor. In addition, the Ki was more than 10 µM in [3]; more than 10 µM in assay [9]; 0.745 µM in assay [4]; more than 10 µM in assay [5]; 8.93 µM in assay [6]; more than 10 µM at Cannabinoid receptor 2. The Ki (in [7]; in assay [8]; on Vasopressin V1a receptor) was more than 10 µM each time.
`CCc1cc(OC)c(CCN)cc1OC` [2-(2,5-dimethoxy-4-ethylphenyl)ethylamine]: the Ki at Cannabinoid receptor 1 is more than 10 µM; on Histamine H3 receptor, more than 10 µM; in assay [1], 2.56 µM; at Nischarin, more than 10 µM; on Vasopressin V1b receptor, more than 10 µM; in assay [3] it was more than 10 µM. Further, the Ki in assay [4] is 0.0902 µM; in [5] it was more than 10 µM; in assay [6] it was 0.49 µM; at Cannabinoid receptor 2, more than 10 µM; in assay [7], 0.426 µM; in assay [8], more than 10 µM. The Ki at Vasopressin V1a receptor is more than 10 µM.
Consider `CC(C)N(CCc1c[nH]c2ccccc12)C(C)C` [dipt], for which the Ki on Cannabinoid receptor 1 was more than 10 µM; in assay [1] it was more than 10 µM; in [2] it was 1.8 µM; on Nischarin, 0.356 µM; at Vasopressin V1b receptor, more than 10 µM; in assay [3] it was more than 10 µM. Also, the Ki in [9] is more than 10 µM; in assay [4], 2.52 µM; in assay [5], 2.7 µM; in assay [6], more than 10 µM; at Cannabinoid receptor 2 it was more than 10 µM; in assay [7], 3.42 µM. The Ki (in assay [8]; on Vasopressin V1a receptor) was more than 10 µM in each case.
Turning to `COc1cc(CCN)c(OC)cc1Br`, the Ki on Cannabinoid receptor 1 is more than 10 µM; on Histamine H3 receptor, more than 10 µM; in assay [1], 0.822 µM; in assay [2], more than 10 µM; on Nischarin, 2.16 µM; at Vasopressin V1b receptor it was more than 10 µM. In addition, the inhibition constant Ki in [3] is more than 10 µM; in assay [4], 0.103 µM; in [5], more than 10 µM; in [6] it was 0.309 µM; at Cannabinoid receptor 2, more than 10 µM; in assay [7], 0.209 µM. The Ki on Vasopressin V1a receptor is more than 10 µM.
With `COc1ccc2[nH]cc(CCN(C)C(C)C)c2c1` [5-meo-mipt], the Ki was more than 10 µM at Histamine H3 receptor; more than 10 µM in assay [1]; more than 10 µM in assay [2]; 0.879 µM at Nischarin; more than 10 µM at Vasopressin V1b receptor; more than 10 µM in assay [3]. Further, the Ki in [9] is more than 10 µM; in assay [4], 0.637 µM; in [5], 0.918 µM; in assay [6] it was 0.175 µM; on Cannabinoid receptor 2, more than 10 µM; in [7] it was 0.0198 µM. The Ki (in [8]; at Vasopressin V1a receptor) was more than 10 µM in each case.
Take `CNC(C)Cc1ccc2c(c1)OCO2` (stereo not given) [mdma]: the inhibitory constant (Ki) at Cannabinoid receptor 1 is more than 10 µM; at Nischarin it was 0.22 µM; at Vasopressin V1b receptor, more than 10 µM; in assay [3], more than 10 µM; in [9], more than 10 µM; in assay [4] it was 1.35 µM. Moreover, the Ki is 2.53 µM in assay [6], more than 10 µM in assay [7] and 1.2 µM in assay [8].
In the case of `CCCN(CCC)CCc1c[nH]c2ccccc12` [dpt], the Ki was more than 10 µM on Cannabinoid receptor 1; more than 10 µM on Histamine H3 receptor; more than 10 µM in [1]; 0.397 µM in [2]; more than 10 µM on Vasopressin V1b receptor; more than 10 µM in assay [3]. The Ki in assay [9] was more than 10 µM; in [4], 0.514 µM; in [5], 2.92 µM; in [6], 0.458 µM; at Cannabinoid receptor 2 it was more than 10 µM; in [7], 0.284 µM. Also, the Ki (in [8]; on Vasopressin V1a receptor) was more than 10 µM in each case.
With `CCSc1cc(OC)c(CCN)cc1OC` [2C-T-2], the Ki at Cannabinoid receptor 1 was more than 10 µM; at Histamine H3 receptor it was more than 10 µM; in assay [1], 0.692 µM; in [2], 3.87 µM; on Nischarin, 2.08 µM; at Vasopressin V1b receptor, more than 10 µM. Also, the Ki was more than 10 µM in assay [3]; 0.166 µM in [4]; more than 10 µM in assay [5]; 0.73 µM in [6]; more than 10 µM at Cannabinoid receptor 2; more than 10 µM in assay [8]. The molecule also displayed a Ki at Vasopressin V1a receptor of more than 10 µM.
For the molecule `CCSc1cc(OC)c(CC(N)CC)cc1OC` (stereo not given) [1-(4-Ethylsulfanyl-2,5-dimethoxy-benzyl)-propylamine], the Ki was more than 10 µM on Cannabinoid receptor 1; more than 10 µM at Histamine H3 receptor; more than 10 µM in [1]; 0.515 µM in assay [2]; 0.947 µM on Nischarin; more than 10 µM at Vasopressin V1b receptor. For the same molecule, the Ki in assay [3] was more than 10 µM; in assay [4], more than 10 µM; in assay [5], more than 10 µM; in assay [6] it was more than 10 µM; on Cannabinoid receptor 2 it was more than 10 µM; in assay [7], 3.83 µM. The Ki (in assay [8]; on Vasopressin V1a receptor) was more than 10 µM throughout.
In the case of `COc1cc(CC(C)N)c(OC)cc1Br` (stereo not drawn) [2-(4-Bromo-2,5-dimethoxy-phenyl)-1-methyl-ethylamine((-)-DOB)], the Ki is more than 10 µM at Cannabinoid receptor 1; 1.15 µM in assay [1]; 2.19 µM in assay [2]; more than 10 µM at Vasopressin V1b receptor; more than 10 µM in [3]; 0.594 µM in [4]. Besides, the Ki was more than 10 µM in assay [5]; 4.27 µM in assay [6]; more than 10 µM on Cannabinoid receptor 2; 0.506 µM in [7]; more than 10 µM in [8]; more than 10 µM on Vasopressin V1a receptor.
